“And” between values parts separate entries of the source, which are not always exact repeats. Equal entries are not always repeated. Where two headings read alike, the source gives them in different places.
How the values were obtained:
[1] = test system: Mtb growth in J774 macrophage-like cells; experiment: J774 infection in 96-well plates, mKO fluorescence 6 days post-infection; type: cell-based, Mycobacterium tuberculosis; conditions: for Inhibition of Mtb growth in J774 cells: 10 μM; for % Growth: Fig. 2D, DMSO = 100
Procedure: For J774 infection in 96-well plates, 1.8 × 10^5 J774 cells were seeded per well in 180 μl of J774 infection media 1 day prior to infection. On the day of the assay, log-phase Mtb constitutively expressing mKO were pelleted and resuspended in 1 ml basal uptake buffer, passed 6× through a tuberculin syringe with a 25 G × 5/8″ needle, then resuspended in J774 infection media to a final OD600 = 0.2. Media was removed from 96-well plate containing the J774 cells, with 140 μl of fresh J774 infection media added back to each well. A volume of 40 μl of the Mtb suspension at OD600 = 0.2 was added to each well, followed by addition of appropriate concentration of compound or DMSO in a 20-μl final volume in J774 infection media (compound final concentration 10 μM, rifampicin final concentration 5 μM, DMSO final concentration 0.1%/well). Bacterial mKO fluorescence was read immediately after infection using a Biotek Synergy Neo2 microplate reader (bottom read monochromator, excitation 543/10 nm, emission 565/10 nm), and again 6 days post-infection. Plates were kept in humidified ziplock bags in a 37°C, 5% CO2 incubator. mKO fluorescence in DMSO-treated control samples were defined as 100% growth, and fluorescence observed in treatment conditions calculated as a percentage from that set value.

[2] = test system: WT Mtb (Erdman) in primary murine BMDMs; experiment: Primary murine bone marrow-derived macrophage infection, CFU; type: cell-based, Mycobacterium tuberculosis; conditions: for CFU/ml: Fig. 2E, 10 µM
Procedure: C57BL/6J wild-type mice (Jackson Laboratories) were used for extraction of BMDMs. Cells were harvested and expanded in DMEM containing 10% FBS, 15% L-cell conditioned media, 2 mM L-glutamine, 1 mM sodium pyruvate, and penicillin/streptomycin as needed in a 37°C incubator in a 5% CO2 atmosphere. […] Macrophages were lysed with water containing 0.01% sodium dodecyl sulfate and a dilution series of the samples plated on 7H10 agar for CFU determination.

[3] = test system: CDC1551(rv2390c′::GFP) reporter Mtb strain; conditions: for Normalized % induction: Fig. 2C, DMSO = 100; for Ability to increase rv2390c′::GFP reporter signal in high [Cl−]: pH 7
Mtb [4] = experiment: Mtb growth assay in cholesterol medium (OD600); conditions: for Inhibition of Mtb growth in cholesterol media: 10 μM, OD600 over 12 days; for OD600: Fig. 2G
From the text: (§1) Bacterial growth was tracked by measuring OD600 every 3 days for 12 days. […] Bacterial growth was tracked by measurement of OD600 every 3 days over 12 days.

Mtb [5] = experiment: Mtb growth assay in standard 7H9 medium (OD600); conditions: Fig. 2F
From the text: as §1

J774 cells = experiment: Intracellular drug accumulation assay in J774 cells (LC-MS); conditions: for Intracellular accumulation in J774 cells: 24 hours; for nmol/106 cells: Fig. 3F
Mtb-infected J774 cells = conditions: for nmol/106 cells: Fig. 3F
[6] = test system: CDC1551(rv2390c′::GFP) reporter Mtb strain, response to high [Cl−]; experiment: microbe, parasite or virus in culture; type: cell-based, Mycobacterium tuberculosis; conditions: primary screen, 10 µM
[7] = test system: Mtb growth in cholesterol media; parameters: method as in PubChem AID 1259343; conditions: ref PubChem AID 1259343; cited from earlier work
Mtb CDC1551 = experiment: Intrabacterial drug accumulation assay (LC-MS); conditions: 24-hour exposure, 7H9 pH 7 ± 250 mM NaCl

Structure (SMILES)	Inhibition of Mtb growth in J774 cells ([1]; 6 days post-infection)	% Growth ([1]; average of 4 replicates) [%]	% Growth ([1]; individual replicates)	Normalized % induction ([3]; average of 3 replicates) [%]	Normalized % induction ([3]; individual replicates)	Ability to increase rv2390c′::GFP reporter signal in high [Cl−] [3]	Inhibition of Mtb growth in cholesterol media (Mtb [4])	OD600 (Mtb [4]; day 3, average)	OD600 (Mtb [4]; day 3, individual replicates)	OD600 (Mtb [4]; day 6, average)	OD600 (Mtb [4]; day 6, individual replicates)	OD600 (Mtb [4]; day 9, average)	OD600 (Mtb [4]; day 9, individual replicates)	OD600 (Mtb [4]; day 12, average)	OD600 (Mtb [4]; day 12, individual replicates)	OD600 (Mtb [5]; day 3, average)	OD600 (Mtb [5]; day 3, individual replicates)	OD600 (Mtb [5]; day 6, average)	OD600 (Mtb [5]; day 6, individual replicates)	OD600 (Mtb [5]; day 9, average)	further results
c1ccc2oc(N3CCN(Cc4cncnc4)CC3)nc2c1 [JSF-4297, 2-(4-(pyrimidin-5-ylmethyl)piperazin-1-yl)benzo[d]oxazole]	loss of the ability to inhibit Mtb growth	108.514	102.242% and 116.384% and 110.602% and 104.828%	100.379	88.9158% and 107.146% and 105.074%	lost the ability	no longer inhibited Mtb growth	0.09333	0.1 (2×) and 0.08	0.3133	0.32 (2×) and 0.3	0.4533	0.46 (2×) and 0.44	0.5	0.48 and 0.5 and 0.52	0.1933	0.18 (2×) and 0.22	0.4	0.4 and 0.42 and 0.38	0.5467	Effect on bacterial load / Mtb growth in primary murine BMDMs ([2]; 10 μM, 8-day infection time course, vs DMSO): loss of the ability to inhibit Mtb growth; OD600 (Mtb [5]; day 9, individual replicates): 0.56 (2×) and 0.52; OD600 (Mtb [5]; day 12, average): 0.7; OD600 (Mtb [5]; day 12, individual replicates): 0.7 and 0.72 and 0.68; Intracellular accumulation in J774 cells (J774 cells): no detectable accumulation; nmol/106 cells (J774 cells; Experiment 1 - J774, average): 0 nmol/106 cells; nmol/106 cells (J774 cells; Experiment 1 - J774, individual replicates): 0 nmol/106 cells; nmol/106 cells (J774 cells; Experiment 2 - J774, average): 0 nmol/106 cells; nmol/106 cells (J774 cells; Experiment 2 - J774, individual replicates): 0 nmol/106 cells; nmol/106 cells (J774 cells; Experiment 3 - J774, average): 0 nmol/106 cells; nmol/106 cells (J774 cells; Experiment 3 - J774, individual replicates): 0 nmol/106 cells; nmol/106 cells (Mtb-infected J774 cells; Experiment 1 - Mtb-infected J774, average): 0.006771 nmol/106 cells; nmol/106 cells (Mtb-infected J774 cells; Experiment 1 - Mtb-infected J774, individual replicates): 0.007341 nmol/106 cells and 0.006486 nmol/106 cells (2×); nmol/106 cells (Mtb-infected J774 cells; Experiment 2 - Mtb-infected J774, average): 0.007288 nmol/106 cells; nmol/106 cells (Mtb-infected J774 cells; Experiment 3 - Mtb-infected J774, average): 0.039 nmol/106 cells; nmol/106 cells (Mtb-infected J774 cells; Experiment 3 - Mtb-infected J774, individual replicates): 0.03001 nmol/106 cells and 0.048 nmol/106 cells
CO[C@H]1/C=C/O[C@@]2(C)Oc3c(C)c(O)c4c(O)c(c(/C=N/N5CCN(C)CC5)c(O)c4c3C2=O)NC(=O)/C(C)=C\C=C\[C@H](C)[C@H](O)[C@@H](C)[C@@H](O)[C@@H](C)[C@H](OC(C)=O)[C@@H]1C [Rif, rifampicin, reference compound]	–	10.744	10.4241% and 10.7119% and 11.5524% and 10.2878%	–	–	–	–	–	–	–	–	–	–	–	–	–	–	–	–	–	% growth of Mtb in J774 cells, average ([1]; 5 μM rifampicin, 6 days post-infection, DMSO = 100%, Fig 1H): 8.618%
c1ccc2oc(N3CCN(Cc4ccc(C5CCCO5)s4)CC3)nc2c1 (centres unmarked) [PubChem SID: 340463409, reference compound]	–	–	–	–	–	–	–	–	–	–	–	–	–	–	–	–	–	–	–	–	Dysregulation of Mtb Cl− response in original rv2390c′::GFP screen [6]: did not demonstrate dysregulation; Call in screen for inhibition of Mtb growth in cholesterol media [7]: having antitubercular activity in cholesterol media
CCSc1ncc(CN2CCN(c3nc4ccccc4s3)CC2)cn1 [JSF-4298, 2-(4-((2-(ethylthio)pyrimidin-5-yl)methyl)piperazin-1-yl)benzo[d]thiazole]	continuing to demonstrate the phenotypes seen with the parental C6 compound	72.2652	65.6342% and 77.3722% and 76.7437% and 69.3109%	128.692	127.109% and 127.993% and 130.974%	continuing to demonstrate the phenotypes seen with the parental C6 compound	continuing to demonstrate the phenotypes seen with the parental C6 compound	0.06	0.06	0.09333	0.08 and 0.1 (2×)	0.1333	0.14 (2×) and 0.12	0.1533	0.16 (2×) and 0.14	0.1867	0.2 and 0.18 (2×)	0.38	0.36 and 0.38 and 0.4	0.5067	OD600 (Mtb [5]; day 9, individual replicates): 0.5 (2×) and 0.52; OD600 (Mtb [5]; day 12, average): 0.6467; OD600 (Mtb [5]; day 12, individual replicates): 0.64 (2×) and 0.66
CCSc1ccc(CN2CCN(c3nc4ccccc4o3)CC2)cc1 [JSF-4300, 2-(4-(4-(ethylthio)benzyl)piperazin-1-yl)benzo[d]oxazole]	continuing to demonstrate the phenotypes seen with the parental C6 compound	60.6248	59.61% and 62.908% and 58.5309% and 61.4502%	125.329	120.3% and 121.44% and 134.248%	continuing to demonstrate the phenotypes seen with the parental C6 compound	continuing to demonstrate the phenotypes seen with the parental C6 compound	0.06	0.06	0.09333	0.1 (2×) and 0.08	0.1333	0.14 (2×) and 0.12	0.16	0.16 and 0.14 and 0.18	0.1733	0.18 (2×) and 0.16	0.3867	0.38 (2×) and 0.4	0.4933	CFU/ml ([2]; day 2, average): 472667 CFU/ml; CFU/ml ([2]; day 2, individual replicates): 482000 CFU/ml and 478000 CFU/ml and 458000 CFU/ml; CFU/ml ([2]; day 4, average): 660000 CFU/ml; CFU/ml ([2]; day 4, individual replicates): 620000 CFU/ml and 660000 CFU/ml and 700000 CFU/ml; CFU/ml ([2]; day 6, average): 806667 CFU/ml; CFU/ml ([2]; day 6, individual replicates): 740000 CFU/ml (2×) and 940000 CFU/ml; CFU/ml ([2]; day 8, average): 966667 CFU/ml; CFU/ml ([2]; day 8, individual replicates): 1080000 CFU/ml and 800000 CFU/ml and 1020000 CFU/ml; Intrabacterial accumulation in Mtb (Mtb CDC1551): robust accumulation; OD600 (Mtb [5]; day 9, individual replicates): 0.48 (2×) and 0.52; OD600 (Mtb [5]; day 12, average): 0.6467; OD600 (Mtb [5]; day 12, individual replicates): 0.64 (2×) and 0.66; Intracellular accumulation in J774 cells (J774 cells): robust accumulation; Accumulation in Mtb-infected J774 cells (Mtb-infected J774 cells; 10 μM, 24 hours, 5 days post-infection): robust accumulation
